Experimental data reported in PMC6429262, “Design and Synthesis of Novel Anti-Proliferative Emodin Derivatives and Studies on their Cell Cycle Arrest, Apoptosis Pathway and Migration” (Molecules, 2019).

Tests used:
L02 cells = experiment: Cytotoxic activity against human normal liver cells (L02); assay type: cell-based
HepG2 cells [1] = experiment: Apoptosis analysis, annexin V-FITC/PI flow cytometry; assay type: cell-based, human; details: for Apoptosis percentage, Early apoptosis / Apoptosis percentage, Late apoptosis / Apoptosis percentage, Overall apoptosis: mean ± SD of three experiments; for percentage of apoptotic cells: Figure 3A
Protocol: In order to verify whether compound 7a is able to induce apoptosis in HepG2 cells, we utilized FITC-Annexin V/PI staining and estimated the percentage of apoptotic cells by flow cytometry. We noted a concentration-dependent increase in the percentage of apoptotic cells when the cells were treated with compound 7a for 48 h at concentrations 2.5, 5, and 10 μM. […] Apoptosis was discriminated with the annexin V-FITC/PI test. Cells were seeded at 2 × 10^5/well in 10% FBS-DMEM into 6-well plates and treated with compounds 7a for 48 h. The cells were washed twice with cold phosphate buffered saline (PBS) and then resuspend in 1× Binding Buffer (0.1M Hepes/NaOH (pH 7.4), 1.4M NaCl, 25 mM CaCl2)) at a concentration of 1 × 10^5 cells/mL. 100 μL of the solution (1 × 10^4 cells) was transferred to a 5 mL culture tube, and 5 μL of FITC Annexin V (BD, Pharmingen, Franklin Lakes, NJ, USA) and 5 μL PI were added to each tube. The cells were gently resuspended by vortexing, and then were incubated for 30 min at RT (25 °C) in the dark. After incubation, 200 μL PBS was added to each tube. The analysis was performed with the system software (CellQuest; BD Biosciences, Franklin Lakes, NJ, USA). Analysis is as follows: lower left quadrant, viable cells (Annexin V−/PI−); lower right quadrant, early apoptotic cells (Annexin V+/PI−); upper right quadrant, late apoptotic cells (annexin V+/PI+); upper left quadrant, necrotic cells (annexin V−/PI+). The percentage of cells positive for PI and Annexin V-FITC was reported inside the quadrants.

HepG2 cells [2] = experiment: Wound healing assay (cell migration); assay type: cell-based; details: Homo sapiens, 48 h, read-out: Inhibition (%) of migration (cell inhibitory rate)
Protocol: To evaluate the effect of compound 7a on cancer migration, a wound healing assay was conducted to determine whether compound 7a could prevent HepG2 cell migration. After culturing HepG2 cells for 48 h in the presence and absence of compound 7a at 0, 0.25, 0.5, and 1 μM, a pipette tip was streaked through the cell culture, resulting in a cell deficient space. The territory recovered by the HepG2 cells was used to observe the migration inhibition capability of compound 7a.
HepG2 cells were grown in DMEM medium containing growth factors at a cell density of 1 × 10^5 cells/mL for 24 h. A disposable […] plastic pipette tip was used to scratch the monolayer of cells in a streaking motion. Compounds were added to the streaked cell culture at the indicated concentrations. The streaked cells were then cultured in serum-free medium for an additional 48 h and photographed. To quantify the experimental results, the % cell inhibitory rate was calculated by the equation: cell inhibitory rate (%) = (1 − Ddrug/Dcontrol) × 100%, where Ddrug is the mean distance of cell migration in drug group and Dcontrol is the mean distance of cell migration in control group. Pictures of the initial wounded monolayers were compared with the corresponding pictures of cells at the end of the incubation, and data were presented as mean ± SD from three independent experiments.

HepG2 cells [3] = experiment: Cell cycle analysis, PI staining flow cytometry; assay type: cell-based, human; parameters: Dip G1 (G1 phase cells) / Dip S (S phase cell population): dose or concentration left out as unconfirmed; details: for Cell cycle distribution, G0/G1 / Cell cycle distribution, G2/M / Cell cycle distribution, S: mean ± SD of three experiments
Protocol: To further examine how compound 7a suppressed the growth of HepG2 cells, the effect of compound 7a on cell cycle distribution with different concentrations was investigated by flow cytometric analysis following staining the DNA with propidium iodide (PI).
The HepG2 cells were treated with indicated concentrations of compound 7a. After incubation for 48 h, cells were washed twice with ice-cold PBS, fixed and permeabilized with ice cold 70% ethanol at −20 °C overnight. The cells were treated with 100 μg/mL RNase A at 37 °C for 30min, then washed with ice-cold PBS and finally stained with 1mg/mL PI in the dark at 4 °C for 30 min. The cellular DNA content for the cell cycle distribution analysis was performed with the system software (CellQuest; BD Biosciences), plotting at least 30,000 events per sample. The percentage of cells in the G1, S and G2 phases of the cell cycle were determined using the ModFit LT version 5.0 software package (Verity Software, Topsham, ME, USA).

[4] = HepG2, 48 h, representative plot

## Cc1cc(O)c2c(c1)C(=O)c1cc(OCCCOC(=O)[C@@H](C)N)cc(O)c1C2=O.O=C(O)C(F)(F)F [Compound 7a, (R)-1-(3-(4,5-Dihydroxy-7-methyl-9,10-dioxo-9,10-dihydroanthracen-2-yloxy)propoxy)-1-oxopropan-2-aminium 2,2,2-trifluoroacetate]
L02 cells; Homo sapiens, L02, human normal liver L02 cells
  IC50: 14 ± 0.27 µM
L02 cells; human normal liver L02 cells
  IC50: 18.5 ± 0.19 µM
HepG2 cells [1]; HepG2, 2.5 μM
  Apoptosis percentage, Early apoptosis: 2.91 ± 0.45%
  Apoptosis percentage, Late apoptosis: 3.69 ± 0.48%
  Apoptosis percentage, Overall apoptosis: 6.59 ± 0.93%
HepG2 cells [1]; HepG2, 5 μM, 48 h
  percentage of apoptotic cells: 22.2%
HepG2 cells [1]; HepG2, 5 μM
  Apoptosis percentage, Early apoptosis: 15.93 ± 0.76%
  Apoptosis percentage, Late apoptosis: 7.51 ± 0.68%
  Apoptosis percentage, Overall apoptosis: 23.450 ± 1.07%
HepG2 cells [1]; HepG2, 10 μM, 48 h
  percentage of apoptotic cells: 50.7%
HepG2 cells [1]; HepG2, 10 μM
  Apoptosis percentage, Early apoptosis: 37.73 ± 0.97%
  Apoptosis percentage, Late apoptosis: 14.63 ± 1.17%
  Apoptosis percentage, Overall apoptosis: 52.00 ± 1.41%
HepG2 cells [1]; Homo sapiens, HepG2, 2.5 μM, 48 h, representative plot, read-out: Q4 (Annexin V−/PI−, viable cells)
  viability at 2.5 µM: 93.3%
HepG2 cells [1]; Homo sapiens, HepG2, 5.0 μM, 48 h, representative plot, read-out: Q4 (Annexin V−/PI−, viable cells)
  viability at 5 µM: 74.2%
HepG2 cells [1]; Homo sapiens, HepG2, 10 μM, 48 h, representative plot, read-out: Q4 (Annexin V−/PI−, viable cells)
  viability at 10 µM: 46.9%
HepG2 cells [2]; HepG2, 0.25 μM
  inhibition at 0.25 µM: 12.6 ± 1.69%
HepG2 cells [2]; HepG2, 0.5 μM
  inhibition at 0.5 µM: 23.7 ± 0.59%
HepG2 cells [2]; HepG2, 1 μM
  inhibition at 1 µM: 40.2 ± 2.92%
HepG2 cells [3]; HepG2, 0.25 μM
  Cell cycle distribution, G0/G1: 44.18 ± 1.79%
  Cell cycle distribution, G2/M: 17.55 ± 0.90%
  Cell cycle distribution, S: 38.25 ± 1.65%
HepG2 cells [3]; HepG2, 0.5 μM
  Cell cycle distribution, G0/G1: 56.49 ± 1.40%
  Cell cycle distribution, G2/M: 24.81 ± 1.79%
  Cell cycle distribution, S: 19.21 ± 1.33%
HepG2 cells [3]; HepG2, 1 μM
  Cell cycle distribution, G0/G1: 63.96 ± 2.42%
  Cell cycle distribution, G2/M: 22.22 ±1.16%
  Cell cycle distribution, S: 14.52 ± 1.43%
HepG2 cells [3]; [4]
  Dip G1 (G1 phase cells): 63.37%
  Dip S (S phase cell population): 14.60%
